Test results: paper PMC10808981, “Synthesis and structure–activity relationships of aryl fluorosulfate-based inhibitors as novel antitubercular agents” (Bioorganic & Medicinal Chemistry Letters, 2024)
≈ marks a conversion by molar mass, not a printed value.

Key:
Mtb H37Rv = experiment: MIC determination in Mtb H37Rv, Microdilution Alamar Blue Assay (MABA); assay type: cell-based, Mycobacterium tuberculosis; conditions: for MIC: Mtb H37Rv, MABA, 7 days
[1] = HEK293T cytotoxicity assay (Cell Titer-Glo); assay type: cell-based; conditions: human, HEK293T cells; HEK293T, 3 days
Description: HEK293T (ATCC) were grown in DMEM (Gibco Cat # 11965-092) supplemented with 10% heat-inactivated FBS, Pen Strep (Gibco) 1X in a 5% CO2 humidified atmosphere at 37◦C. Cells were washed once with DPBS 1X (Gibco), incubated for less than 5 minutes at room temperature in TrypLE solution (Gibco), washed once in propagation medium to remove trypsin, and counted with Trypan Blue. 5 µL of cell suspension ([…]) was dispensed into 1536-well plates containing serial 3-fold drug dilution ranging from 40 µM to 2 nM and incubated for 3 days in a 5% CO2 humidified atmosphere at 37 ◦C. Cell Titer-Glo® Luminescent Cell Viability Assay (Promega) reagent was diluted 1:1 with water and then 2 µL were added to plates. Luminescence was measured in a PHERAStar plate reader (BMG Labtech) and data normalized to negative control (DMSO) minus inhibitor (Puromycin 10 µM). Dose-response curves were fit using the Smart Fit function in Genedata Screener Analyzer (v16.0.8).

in vitro = conditions: human
[2] = Mycobacterium tuberculosis, H37RV, 168 h

With COc1ncn(-c2cc(F)c(COc3ccc(OS(=O)(=O)F)cc3)c(F)c2)n1 [Compound 20f, 4-((2,6-difluoro-4-(3-methoxy-1H-1,2,4-triazol-1-yl)benzyl)oxy)phenyl sulfurofluoridate] the MIC (Mtb H37Rv; [2]) was 0.6 µM (≈ 0.249 µg/mL), the CC50 at 3 days [1] was > 40 µM and the CC50 (in vitro) was > 40 µM.
In the case of O=S(=O)(F)Oc1ccc(OCc2c(F)cc(-c3cnoc3)cc2F)cc1 [Compound 19j, 4-((2,6-difluoro-4-(isoxazol-4-yl)benzyl)oxy)phenyl sulfurofluoridate], the MIC (Mtb H37Rv) is reported as 0.78 µM (≈ 0.301 µg/mL), the MIC (Mtb H37Rv; [2]) is reported as < 1 µM and the CC50 at 72 h [1] is reported as 23.8 µM. The CC50 at 72 h (in vitro) was 6.99 µM.
With Cc1ncn(-c2cc(F)c(COc3ccc(OS(=O)(=O)F)cc3)c(F)c2)n1 [Compound 20a, 4-((2,6-difluoro-4-(3-methyl-1H-1,2,4-triazol-1-yl)benzyl)oxy)phenyl sulfurofluoridate] the MIC (Mtb H37Rv; [2]) was 0.3 µM (≈ 0.12 µg/mL), the CC50 at 72 h [1] was 17.1 µM and the CC50 at 72 h (in vitro) was 16.3 µM.
O=S(=O)(F)Oc1ccc(OCc2c(F)cc(-c3ccn[nH]3)cc2F)cc1 [Compound 19c, 4-((2,6-difluoro-4-(1H-pyrazol-5-yl)benzyl)oxy)phenyl sulfurofluoridate] showed an MIC (Mtb H37Rv; [2]) of 0.84 µM (≈ 0.323 µg/mL), a CC50 at 72 h [1] of 31.7 µM and a CC50 at 72 h (in vitro) of 18.5 µM.
With CC(C)(C)S(=O)(=O)Nc1ncn(-c2cc(F)c(COc3ccc(OS(=O)(=O)F)cc3)c(F)c2)n1 [Compound 21f, 4-((4-(3-((1,1-dimethylethyl)sulfonamido)-1H-1,2,4-triazol-1-yl)-2,6-difluorobenzyl)oxy)phenyl sulfurofluoridate] the MIC (Mtb H37Rv; [2]) was 2.5 µM (≈ 1.3 µg/mL), the CC50 at 3 days [1] was > 40 µM and the CC50 (in vitro) was > 40 µM.
With N#Cc1cc(-n2cncn2)cc(F)c1COc1ccc(OS(=O)(=O)F)cc1 [Compound 3j, 4-((2-cyano-6-fluoro-4-(1H-1,2,4-triazol-1-yl)benzyl)oxy)phenyl sulfurofluoridate] the MIC (Mtb H37Rv) was 5 µM (≈ 1.96 µg/mL), the MIC (Mtb H37Rv; [2]) was 5 µM (≈ 1.96 µg/mL) and the CC50 at 3 days [1] was > 40 µM. The CC50 (in vitro) was > 40 µM.
Work on Cn1ccnc1-c1cc(F)c(COc2ccc(OS(=O)(=O)F)cc2)c(F)c1 [Compound 19e, 4-((2,6-difluoro-4-(1-methyl-1H-imidazol-2-yl)benzyl)oxy)phenyl sulfurofluoridate] yielded an MIC (Mtb H37Rv; [2]) of 1.25 µM (≈ 0.498 µg/mL), a CC50 at 72 h [1] of 26 µM and a CC50 at 72 h (in vitro) of 13.7 µM.
For O=S(=O)(F)Oc1ccc(OCc2c(F)cc(-c3nnn[nH]3)cc2F)cc1 [Compound 19 h, 4-((2,6-difluoro-4-(1H-tetrazol-5-yl)benzyl)oxy)phenyl sulfurofluoridate], the MIC (Mtb H37Rv; [2]) was 5 µM (≈ 1.93 µg/mL), the CC50 at 3 days [1] was > 40 µM and the CC50 (in vitro) was > 40 µM.
For CN(c1ncn(-c2cc(F)c(COc3ccc(OS(=O)(=O)F)cc3)c(F)c2)n1)S(C)(=O)=O [Compound 21c, 4-((2,6-difluoro-4-(3-(N-methylmethylsulfonamido)-1H-1,2,4-triazol-1-yl)benzyl)oxy)phenyl sulfurofluoridate], the MIC (Mtb H37Rv; [2]) was 0.31 µM (≈ 0.153 µg/mL) and the CC50 at 72 h (in vitro) was 15.3 µM.
O=S(=O)(F)Oc1ccc(OCc2ccc(-n3cncn3)c(F)c2F)cc1 [Compound 3f, 4-((2,3-difluoro-4-(1H-1,2,4-triazol-1-yl)benzyl)oxy)phenyl sulfurofluoridate] showed an MIC (Mtb H37Rv; [2]) of 1.25 µM (≈ 0.482 µg/mL), a CC50 at 72 h [1] of 18.8 µM and a CC50 at 72 h (in vitro) of 22.4 µM.
For CS(=O)(=O)Nc1ncn(-c2cc(F)c(COc3ccc(O)cc3)c(F)c2)n1 [Compound 21 g], the “anti-TB activity against Mtb (in words)” value (Mtb H37Rv) was “no activity” and the MIC (Mtb H37Rv) was > 10 µM.
For CC(=O)Nc1ncn(-c2cc(F)c(COc3ccc(OS(=O)(=O)F)cc3)c(F)c2)n1 [Compound 21a, 4-((4-(3-acetamido-1H-1,2,4-triazol-1-yl)-2,6-difluorobenzyl)oxy)phenyl sulfurofluoridate], the MIC (Mtb H37Rv; [2]) was 0.15 µM (≈ 0.0664 µg/mL), the CC50 at 3 days [1] was > 40 µM and the CC50 (in vitro) was > 40 µM.
CC(C)c1ncn(-c2cc(F)c(COc3ccc(OS(=O)(=O)F)cc3)c(F)c2)n1 [Compound 20c, 4-((2,6-difluoro-4-(3-isopropyl-1H-1,2,4-triazol-1-yl)benzyl)oxy)phenyl sulfurofluoridate] gave an MIC (Mtb H37Rv; [2]) of 0.6 µM (≈ 0.256 µg/mL), a CC50 at 72 h [1] of 16.7 µM and a CC50 at 72 h (in vitro) of 12.4 µM.
With NS(=O)(=O)c1ncn(-c2cc(F)c(COc3ccc(OS(=O)(=O)F)cc3)c(F)c2)n1 [Compound 20 l, 4-((2,6-difluoro-4-(3-sulfamoyl-1H-1,2,4-triazol-1-yl)benzyl)oxy)phenyl sulfurofluoridate] the MIC (Mtb H37Rv; [2]) was 0.47 µM (≈ 0.218 µg/mL) and the CC50 (in vitro) was > 40 µM.
For O=S(=O)(F)Oc1ccc(OCc2c(F)cc(-n3nccn3)cc2F)cc1 [Compound 3 k, 4-((2,6-difluoro-4-(2H-1,2,3-triazol-2-yl)benzyl)oxy)phenyl sulfurofluoridate], the MIC (Mtb H37Rv; [2]) was 1.23 µM (≈ 0.474 µg/mL), the CC50 at 3 days [1] was > 40 µM and the CC50 (in vitro) was > 40 µM.
For CCc1ncn(-c2cc(F)c(COc3ccc(OS(=O)(=O)F)cc3)c(F)c2)n1 [Compound 20b, 4-((4-(3-ethyl-1H-1,2,4-triazol-1-yl)-2,6-difluorobenzyl)oxy)phenyl sulfurofluoridate], the MIC (Mtb H37Rv; [2]) was 0.6 µM (≈ 0.248 µg/mL), the CC50 at 3 days [1] was > 40 µM and the CC50 at 72 h (in vitro) was 5.8 µM.
In the case of CC(C)(C)c1ncn(-c2cc(F)c(COc3ccc(OS(=O)(=O)F)cc3)c(F)c2)n1 [Compound 20d, 4-((4-(3-(tert-butyl)-1H-1,2,4-triazol-1-yl)-2,6-difluorobenzyl)oxy)phenyl sulfurofluoridate], the MIC (Mtb H37Rv; [2]) is reported as 1.2 µM (≈ 0.53 µg/mL), the CC50 at 72 h [1] is reported as 13.7 µM and the CC50 at 72 h (in vitro) is reported as 6.9 µM.
In the case of O=S(=O)(F)Oc1ccc(OCc2c(F)cc(-c3nnc[nH]3)cc2F)cc1 [Compound 19a, 4-((2,6-difluoro-4-(1H-1,2,4-triazol-3-yl)benzyl)oxy)phenylsulfurofluoridate], the MIC (Mtb H37Rv) is reported as 0.9 µM (≈ 0.347 µg/mL), the MIC (Mtb H37Rv; [2]) is reported as < 1 µM and the CC50 at 72 h [1] is reported as 14.7 µM. For the same compound, the CC50 at 72 h (in vitro) was 19.3 µM.
With O=S(=O)(F)Oc1ccc(OCc2c(F)cc(-n3ccnc3)cc2F)cc1 [Compound 19f, 4-((2,6-difluoro-4-(1H-imidazol-1-yl)benzyl)oxy)phenyl sulfurofluoridate] the MIC (Mtb H37Rv; [2]) was 0.37 µM (≈ 0.142 µg/mL), the CC50 at 72 h [1] was 9.65 µM and the CC50 at 3 days [1] was < 10 µM. For the same compound, the CC50 (in vitro) was < 10 µM and the CC50 at 72 h (in vitro) was 8.63 µM.
O=S(=O)(F)Oc1ccc(OCc2ccc(-n3cncn3)c(F)c2)cc1 [Compound 3e, 4-((3-fluoro-4-(1H-1,2,4-triazol-1-yl)benzyl)oxy)phenyl sulfurofluoridate] gave an MIC (Mtb H37Rv; [2]) of 2.5 µM (≈ 0.918 µg/mL), a CC50 at 72 h [1] of 16.8 µM and a CC50 at 72 h (in vitro) of 17.6 µM.
O=S(=O)(F)Oc1ccc(OCc2c(F)cc(-n3cnnn3)cc2F)cc1 [Compound 19 g, 4-((2,6-difluoro-4-(1H-tetrazol-1-yl)benzyl)oxy)phenyl sulfurofluoridate] gave an MIC (Mtb H37Rv; [2]) of 0.45 µM (≈ 0.174 µg/mL), a CC50 at 72 h [1] of 13.2 µM and a CC50 at 72 h (in vitro) of 12.1 µM.
With O=S(=O)(F)Oc1ccc(OCc2c(F)cc(-c3ncc[nH]3)cc2F)cc1 [Compound 19d, 4-((2,6-difluoro-4-(1H-imidazol-2-yl)benzyl)oxy)phenyl sulfurofluoridate] the MIC (Mtb H37Rv; [2]) was 0.3 µM (≈ 0.115 µg/mL), the CC50 at 3 days [1] was > 40 µM and the CC50 at 72 h (in vitro) was 30.1 µM.
Compound Cc1nc(C)n(-c2cc(F)c(COc3ccc(OS(=O)(=O)F)cc3)c(F)c2)n1 [Compound 20e, 4-((4-(3,5-dimethyl-1H-1,2,4-triazol-1-yl)-2,6-difluorobenzyl)oxy)phenyl sulfurofluoridate] has an MIC (Mtb H37Rv; [2]) of 0.23 µM (≈ 0.0951 µg/mL), a CC50 at 72 h [1] of 14.3 µM and a CC50 at 72 h (in vitro) of 8.1 µM.
With NC(=O)c1ncn(-c2cc(F)c(COc3ccc(OS(=O)(=O)F)cc3)c(F)c2)n1 [Compound 20 k, 4-((4-(3-carbamoyl-1H-1,2,4-triazol-1-yl)-2,6-difluorobenzyl)oxy)phenyl sulfurofluoridate] the MIC (Mtb H37Rv; [2]) was 0.17 µM (≈ 0.0728 µg/mL), the CC50 at 3 days [1] was > 40 µM and the CC50 (in vitro) was > 40 µM.
With O=S(=O)(F)Oc1ccc(OCc2cc(F)c(-n3cncn3)cc2F)cc1 [Compound 3 h, 4-((2,5-difluoro-4-(1H-1,2,4-triazol-1-yl)benzyl)oxy)phenyl sulfurofluoridate] the MIC (Mtb H37Rv; [2]) was 1.25 µM (≈ 0.482 µg/mL), the CC50 at 72 h [1] was 21.6 µM and the CC50 at 72 h (in vitro) was 29.5 µM.
With CC(C)S(=O)(=O)Nc1ncn(-c2cc(F)c(COc3ccc(OS(=O)(=O)F)cc3)c(F)c2)n1 [Compound 21e, 4-((2,6-difluoro-4-(3-((1-methylethyl)sulfonamido)-1H-1,2,4-triazol-1-yl)benzyl)oxy)phenyl sulfurofluoridate] the MIC (Mtb H37Rv; [2]) was 0.31 µM (≈ 0.157 µg/mL), the CC50 at 3 days [1] was > 40 µM and the CC50 (in vitro) was > 40 µM.
In the case of O=S(=O)(F)Oc1ccc(OCc2cc(F)c(-n3cncn3)c(F)c2)cc1 [Compound 3 g, 4-((3,5-difluoro-4-(1H-1,2,4-triazol-1-yl)benzyl)oxy)phenyl sulfurofluoridate], the MIC (Mtb H37Rv; [2]) is reported as 10 µM (≈ 3.85 µg/mL), the CC50 at 72 h [1] is reported as 34.8 µM and the CC50 (in vitro) is reported as > 40 µM.
In the case of Cn1cnc(-c2cc(F)c(COc3ccc(OS(=O)(=O)F)cc3)c(F)c2)n1 [Compound 19b, 4-((2,6-difluoro-4-(1-methyl-1H-1,2,4-triazol-3-yl)benzyl)oxy)phenyl sulfurofluoridate], the MIC (Mtb H37Rv; [2]) is reported as 1.25 µM (≈ 0.499 µg/mL) and the CC50 (in vitro) is reported as > 40 µM.
N#Cc1ncn(-c2cc(F)c(COc3ccc(OS(=O)(=O)F)cc3)c(F)c2)n1 [Compound 20 g, 4-((4-(3-cyano-1H-1,2,4-triazol-1-yl)-2,6-difluorobenzyl)oxy)phenyl sulfurofluoridate] showed an MIC (Mtb H37Rv; [2]) of 0.45 µM (≈ 0.185 µg/mL) and a CC50 at 72 h (in vitro) of 10.3 µM.
With CCS(=O)(=O)Nc1ncn(-c2cc(F)c(COc3ccc(OS(=O)(=O)F)cc3)c(F)c2)n1 [Compound 21d, 4-((4-(3-(ethylsulfonamido)-1H-1,2,4-triazol-1-yl)-2,6-difluorobenzyl)oxy)phenyl sulfurofluoridate] the MIC (Mtb H37Rv; [2]) was 0.08 µM (≈ 0.0394 µg/mL) and the CC50 (in vitro) was > 40 µM.
